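Compound exposure: 48 hours, 5 concentrations, 96-well plates. TGI: total growth inhibition.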
Tests used:
Assay in all cases: growth of human tumour cells (NCI), 48 h
COLO 205 colon = system: COLO 205 colon
HCT-116 colon = system: HCT-116 colon
HCT-15 colon = system: HCT-15 colon
K-562 leukemia = system: K-562 leukemia
KM12 colon = system: KM12 colon
MALME-3M melanoma = system: MALME-3M melanoma
NCI-H226 lung = system: NCI-H226 lung
NCI-H460 lung = system: NCI-H460 lung
RXF 393 renal = system: RXF 393 renal
SF-268 CNS = system: SF-268 CNS
SNB-19 CNS = system: SNB-19 CNS
SNB-75 CNS = system: SNB-75 CNS
TK-10 renal = system: TK-10 renal
HL-60(TB) leukemia = system: HL-60(TB) leukemia

Compound	TGI (COLO 205 colon) [µM]	TGI (HCT-116 colon) [µM]	TGI (HCT-15 colon) [µM]	TGI (K-562 leukemia) [µM]	TGI (KM12 colon) [µM]	TGI (MALME-3M melanoma) [µM]	TGI (NCI-H226 lung) [µM]	TGI (NCI-H460 lung) [µM]	TGI (RXF 393 renal) [µM]	TGI (SF-268 CNS) [µM]	TGI (SNB-19 CNS) [µM]	TGI (SNB-75 CNS) [µM]	TGI (TK-10 renal) [µM]	TGI (HL-60(TB) leukemia) [µM]
C[C@]12CC(c3ccccc3O1)C(C(=O)NC13CC4CC(CC(C4)C1)C3)C(=O)N2 (stereo not given in full)	31.7	41	60.8	30.4	> 100	> 100	71.3	> 100	57.6	96	> 100	74	> 100	–
COc1ccc(CN(CCc2c[nH]c3ccccc23)Cc2ccc(OC)cc2)cc1	–	–	> 100	> 100	13.9	8.82	2.95	> 61.7	10.8	18	> 44.4	15.1	3.97	–
CC(c1cccc2ccccc12)/[N+]([O-])=C/c1ccccc1 (stereo not given)	> 100	> 100	–	> 100	> 100	> 100	–	> 100	> 100	> 100	> 100	> 100	> 100	> 100
Cc1ccc(S(=O)(=O)N2CCCCN(S(=O)(=O)c3ccc(C)cc3)Cc3ccccc3OCCOCCOc3c4cccc3Cc3cccc5c3OCCOCCOc3ccccc3CN(S(=O)(=O)c3ccc(C)cc3)CCCN(S(=O)(=O)c3ccc(C)cc3)Cc3ccccc3OCCOCCOc3c(cccc3C4)Cc3cccc(c3OCCOCCOc3ccccc3C2)C5)cc1	> 100	> 100	> 100	> 100	> 100	> 100	> 100	> 100	> 100	> 100	> 100	> 100	> 100	–
CCCCCc1c2nc(c(CCCCC)c3ccc([nH]3)c(CCCCC)c3ccc([nH]3)c(CCCCC)c3nc1C=C3)C=C2	> 100	> 100	> 100	> 100	> 100	> 100	–	> 100	–	> 100	> 100	> 100	> 100	> 100
CSc1cc(Cl)c(C)cc1S(=O)(=O)NC(=O)NNc1ccc(F)c(Cl)c1	> 100	> 100	> 100	> 100	> 100	> 100	> 100	> 100	> 100	> 100	> 100	> 100	–	–
Cc1c2c(n(CCc3ccccc3)c1C)NN=C(C#N)S2(=O)=O	> 100	> 100	> 100	> 100	> 100	> 100	–	> 100	–	> 100	> 100	> 100	> 100	–
C[Si](C)(C)OC1c2[nH]c3ccccc3c2CN2C(=O)CCC12 (stereo not given)	> 100	> 100	> 100	> 100	> 100	–	> 100	> 100	–	> 100	> 100	> 100	> 100	> 100
CC1OC(O[C@H]2CC[C@]3(C)[C@H]4CC=C5[C@@H]6[C@@H](C)[C@H](C)CC[C@]6(C(=O)O)CC[C@@]5(C(=O)O)[C@]4(C)CC[C@H]3C2(C)C)C(O)C(O)C1O (stereo not given in full)	> 75	> 75	> 75	> 75	> 75	–	–	> 75	> 75	> 75	> 75	> 75	> 75	> 75
O=C(CCCn1ccnc1[N+](=O)[O-])NCCn1ccnc1	> 100	> 100	> 100	> 100	> 100	> 100	> 100	> 100	–	> 100	> 100	> 100	> 100	> 100
CC(C)(C)N1NC1C1NN1C(C)(C)C (stereo not given)	> 100	> 100	> 100	> 100	> 100	> 100	> 100	> 100	> 100	> 100	> 100	> 100	> 100	–
COC(=O)N/N=C/c1oc(-c2cccc([N+](=O)[O-])c2)c(-c2cccc([N+](=O)[O-])c2)c1[N+](=O)[O-]	> 100	> 100	> 100	> 100	> 100	–	–	> 100	> 100	> 100	> 100	–	> 100	55.4
CNC(=O)CCNC(=O)CCC(=O)OC	> 100	> 100	–	> 100	> 100	–	–	> 100	> 100	> 100	> 100	–	> 100	–
CC1[C@@H](OCc2ccccc2)COC(=O)N1Cc1ccccc1 (stereo not given in full)	> 100	> 100	> 100	> 100	> 100	> 100	> 100	–	–	> 100	> 100	> 100	> 100	–
CCOP(=O)(OCC)/C(C#N)=C/c1ccco1	> 100	> 100	> 100	> 100	> 100	> 100	> 100	> 100	–	> 100	–	> 100	> 100	> 100
O=[N+]([O-])C(=C(N1CCOCC1)N1CCOCC1)/C(Cl)=C(\Cl)[N+](=O)[O-]	7.62	4.28	8.18	> 100	30.9	3.24	> 100	70.7	3.89	22.9	> 65.6	34.5	3.89	–
